Results as given in patent publication US12533428B2, “Multimodal fluorine-CY3/5/7-DOTA-hapten compositions, diagnostics, fluorescence guided surgery and radioimmunotherapy” (Memorial Sloan Kettering Cancer Center, priority 2019, dated 2026).

Legend:
[1] = system: GD2-expressing IMR32Luc neuroblastoma cells; experiment: Cell binding with anti-tumor/anti-DOTA BsAb, FACS; format: cell-based
Procedure: The cell binding activity of [F]Cy3D (Compound 6) was assayed with an anti-tumor/anti-DOTA bispecific antibody (BsAb). To detect binding of Compound 6 to GD2-expressing IMR32Luc neuroblastoma cells using an anti-GD2/anti-DOTA BsAb or a control BsAb (anti-HER2/anti-DOTA), cells were incubated with 1 μg of BsAb or PBS, washed and then incubated with several versions of Compound 6: (1) Compound 6, (2) [^175Lu]Pre-Compound 6 where ^175Lu was added before a mock ^19F isotope exchange, (3) [^19F]Pre-[^175Lu]Compound 6, where a mock ^19F isotope exchange was done before ^175Lu was added, and (4) [^175Lu]-Compound 6 where ^175Lu was directly added to Compound 6 without isotope exchange. Cells were analyzed by FACS or fluorescent microscopy.

[2] = system: IMR32luc cells; experiment: Cell binding with BsAb, fluorescent microscopy; format: cell-based; details: IMR32luc cells incubated with anti-GD2/anti-DOTA BsAb
Procedure: The cell binding of Compound 6 and [^175Lu]-Compound 6 variants was then studied using fluorescent microscopy. IMR32luc cells were incubated with Anti-GD2/Anti-DOTA BsAb, a control anti-DOTA BsAb or no BsAb, followed by incubation with Compound 6 or [^175Lu]-Compound 6 variants. […] Binding was not detected when a control anti-DOTA BsAb was added (FIG. 14) or no BsAb was added (FIG. 15).

[3] = system: GPA33-expressing human colorectal cancer SW1222 subcutaneous xenograft; experiment: PET/CT imaging of pretargeted [^18F]CyD; format: in vivo, Athymic nude mice; details: approximately 1 h after i.v. injection (1.295 MBq, 0.23 nmol), pretargeted tumor-bearing mice
Procedure: (§1) In vivo pretargeting of [^18F]CyD for PET imaging of human colorectal cancer xenograft (SW1222 human carcinoma cell line). Athymic nude mice bearing the GPA33-expressing human colorectal cancer SW1222 subcutaneous xenograft were used as a model for anti-GPA33 DOTA-PRIT. The groups were intravenously (i.v.) injected with BsAb huA33-C825 (250 μg, 1.19 nmol), followed 24 h later with i.v. injection of dendron CA ([…], 2.76 nmol; (glycodendrimer-based CA α-thio-N-acetylgalactosamine-16-DOTA-Y^3; see WO2020014386)) and after an additional 4 h, i.v. injection of [^18F]CyD (1.295 MBq (35 μCi), 0.23 nmol). Non-invasive PET/CT imaging was performed using a preclinical Inveon PET/CT system at ˜1 h post-injection (p.i.) of [^18F]CyD (see FIG. 23), followed with ex vivo biodistribution assay of radioactivity.

[4] = system: GPA33-expressing human colorectal cancer SW1222 subcutaneous xenograft; experiment: Ex vivo biodistribution of anti-GPA33 pretargeted [^18F]CyD; format: in vivo, Athymic nude mice; details: 2 h p.i.
Procedure: as §1

[5] = system: GPA33-expressing SW1222 colon cancer cells; experiment: Binding with anti-GPA33/anti-DOTA BsAb, FACS flow cytometry (MFI); format: cell-based, human
Procedure: Next [^175Lu]-Compound 6 binding to GPA33-expressing SW1222 colon cancer cells was investigated. SW1222 cells were incubated with 25, 2.5 or 0.25 pmol of anti-GPA33/Anti-DOTA BsAb, or a control (anti-GD2/anti-DOTA) BsAb, washed and mixed with 50, 5 or 0.5 pmol of [^175Lu]-Compound 6.

[6] = system: subcutaneous GD2-expressing tumor (IMR32Luc); experiment: ^18F-PET imaging of GD2-positive subcutaneous tumor; format: in vivo; details: IMR32Luc tumor mouse, anti-GD2/anti-DOTA BsAb 24 h and clearing agent 4 h before PET; image after 2 hours
Procedure: A pilot PET study using ([^175Lu][^18F]-Compound 6) was carried out. For that purpose, a mouse bearing a subcutaneous GD2-expressing tumor (IMR32Luc) was pretreated (24 hours pre PET) with an anti-GD2/anti-DOTA BsAb and followed with DOTA-dendrimer clearing agent (glycodendrimer-based CA α-thio-N-acetylgalactosamine-16-DOTA-Y^3; see WO2020014386) (4 hours before PET) and [^175Lu][^18F]-Compound 6. After 2 hours the image was collected by a PET scan. […] Moreover, the small size of [^175Lu][^18F]-Compound 6 reduced background activity dramatically in a short amount of time.

## CC1(C)C(/C=C/C=C2/N(CCCCCC(=O)Nc3ccc(CC4CN(CC(=O)O)CCN(CC(=O)O)CCN(CC(=O)O)CCN4CC(=O)O)cc3)c3ccc(S(=O)(=O)[O-])cc3C2(C)C)=[N+](CCCCCC(=O)NCC[N+](C)(C)C[B-](F)(F)F)c2ccc(S(=O)(=O)O)cc21 (centres unmarked) [Compound 6, [F]Cy3D]
[1]; IMR32Luc cells incubated with 1 μg anti-GD2/anti-DOTA BsAb
  Binding to cells (fluorescence, FACS): shows no fluorescence
[1]; IMR32Luc cells, negative controls: no BsAb or control BsAb (anti-HER2/anti-DOTA)
  Binding to cells (fluorescence, FACS): no binding
[2]
  Binding to cells (fluorescent microscopy): did not show binding

## CC1(C)C(=C/C=C/C2=[N+](CCCCCC(=O)NCC[N+](C)(C)C[B-](F)(F)[18F])c3ccc(S(=O)(=O)[O-])cc3C2(C)C)N(CCCCCC(=O)Nc2ccc(CC3CN(CC(=O)[O-])CCN(CC(=O)[O-])CCN(CC(=O)[O-])CCN3CC(=O)[O-])cc2)c2ccc(S(=O)(=O)[O-])cc21.[175Lu+3] (centres unmarked) [[^18F]CyD]
[3]
  Activity in the tumor by PET/CT: high activity is present in the tumor
[4]; SW1222-tumor bearing mice
  Bone uptake: 1.65±0.48 % ID/g
  Large intestine uptake: 8.41±2.62 % ID/g
[4]; n=3, SW1222-tumor bearing mice
  Blood uptake: 0.17±0.12 % ID/g
  Kidney uptake: 0.87±0.11 % ID/g
  Tumor Uptake: 5.14±1.24 % ID/g
[4]; tumor to blood
  T:NT for blood: 31±13
[4]; tumor to kidney
  T:NT for kidney: 6±1

## CC1(C)C(=CC=CC2=[N+](CCCCCC(=O)NCC[N+](C)(C)C[B-](F)(F)F)c3ccc(S(=O)(=O)[O-])cc3C2(C)C)N(CCCCCC(=O)Nc2ccc(CC3CN(CC(=O)[O-])CCN(CC(=O)[O-])CCN(CC(=O)[O-])CCN3CC(=O)[O-])cc2)c2ccc(S(=O)(=O)[O-])cc21.[175Lu+3] (centres unmarked) [[^175Lu]-Compound 6, [F]Cy3D[^175Lu]]
[5]; SW1222 cells, 25, 2.5 or 0.25 pmol anti-GPA33/anti-DOTA BsAb, 50, 5 or 0.5 pmol probe
  Mean fluorescence (MFI) of binding: proportionate to the amount
[5]; SW1222 cells, control anti-GD2/anti-DOTA BsAb
  Binding to cells (FACS): no binding

## CC1(C)C(=CC=CC2=[N+](CCCCCC(=O)NCC[N+](C)(C)C[B-](F)(F)[18F])c3ccc(S(=O)(=O)[O-])cc3C2(C)C)N(CCCCCC(=O)Nc2ccc(CC3CN(CC(=O)[O-])CCN(CC(=O)[O-])CCN(CC(=O)[O-])CCN3CC(=O)[O-])cc2)c2ccc(S(=O)(=O)[O-])cc21.[175Lu+3] (centres unmarked) [[^175Lu][^18F]-Compound 6, [^18F]Cy3D[^175Lu]]
[6]
  Tumor targeting by PET scan: specifically targeted to the BsAb-treated tumor
